Results published in patent publication US20160223547A1, “MARKER FOR PREDICTING METASTASIS OF BREAST CANCER” (priority 2013, published 2016).

Tests used:
[1] = system: FN14; experiment: Immunohistochemistry of FN14 expression in triple-negative breast carcinoma grafts treated with lenalidomide; assay type: in vivo; settings: triple-negative breast carcinoma graft in immunosuppressed mice, vs carrier control, anti-FN14 immunohistochemistry
Description: Experimental tumors induced in the breast of immunosuppressed mice by implanting small biopsy fragments (2×2 mm) from patients with triple-negative breast carcinoma. An example of one of these grafts treated with lenalidomide (LND) with respect to the same graft treated with the carrier (control) is shown.
For expression studies, the immunohistochemistry technique with specific anti-FN14 antibodies (sc-27143, C-13, Santa Cruz Biotechnology) at a concentration of 1/3000 was used. Kidney and heart tissues were used as control tissues to view the expression in the cell membrane. The antigens were exposed by heating the preparations in a pressure cooker for 7 minutes in the suitable citrate buffer (Sanz et al., Am J Pathol, 179(2):564-579, 2011).
The primary antibody was diluted in the Dako diluent buffer (Dako, Glostrup, Denmark; Carpinteria, Calif.): Tris buffer, pH 7.2, 15 mmol/1 of NaN3. The LSAB peroxidase system (Dako), including biotinylated secondary antibody, followed by conjugated streptavidin, was used along with the ultraView detection kit (Ventana Benchmark XT, Roche, Tucson, Ariz.). The tumors were classified in three categories considering staining intensity: negative, weakly positive and strongly positive. Only those which are strongly positive in more than 30% of the tumor cells were considered with the overexpressed protein.

[2] = system: brain metastases of breast cancer induced by BRV5CA1 cells; experiment: Therapeutic effect on brain metastases induced by BRV5CA1 cells, luciferase emission monitored in vivo; settings: female Athymic Nude-Foxn1nu mice, 50 mg/kg/d on consecutive days, after a week of treatment
Description: The therapeutic effect of lenalidomide was analyzed by treating the brain metastases of breast cancer induced by injecting BRV5CA1 cells labeled with the luciferase gene into female Athymic Nude-Foxnlnu mice (Martinez-Aranda A., Int. J. Mol. Sci. 2013, 14(4), 8306-8327). The treatment groups N=8 (lenalidomide 50 mg/kg/d on consecutive days) and the control group, in which carrier was injected, were established. The start of the treatment was established on day 14 after the graft and treatment was maintained for 15 days until the end of the experiment. The treatment was started on day 13 after induction and progression of the growth of metastasis was monitored in vivo by quantifying luciferase emission (photons per second) (FIG. 7). After a week of treatment, the difference in growth of the metastasis between the control group and the treated group was significant.

[3] = system: BRV5CA1 cells (clones 424-2 and 424-8, silenced GRP94; Pool, non-silenced GRP94); experiment: MTT cytotoxicity assay of taxotere on brain metastatic breast cancer cells with silenced or non-silenced GRP94; assay type: cell-based; settings: clones 424-2 and 424-8 (silenced GRP94) vs pool, 1-10 ng/ml, 72 h
Description: To […], three sublines were used: Clones: 424-2 and 424-8 (silenced GRP94 [shGRP94]) and a Pool (non-silenced GRP94), from the metastatic variant BRV5Ca1.
For the cytotoxicity assay, each cell type was seeded in triplicate in a 96-well plate (Costar® 3596; Corning Incorporated) at a density of 6000 cells/well in 50 μL of complete medium (DMEM/F12 GIBCO® with serum). Twenty-four hours after seeding the cells, they were treated with taxotere (docetaxel >99%; LC Laboratories (www.LCLabs.com); Stock 200 mg/ml), at different concentrations in triplicate: 10-5-2.5-1 and 0 ng/ml, in a volume of 50 μL/well. Seventy-two hours after the start of the treatment, a cell viability assay MTT was carried out in which survival expressed as a percentage (%) was analyzed (FIG. 2). […]
After this time, the medium was removed from the wells and 50 μL of MTT [3-(4,5-dimethylthiazol-2-yl)-2,5-diphenyltetrazolium bromide; Sigma-Aldrich) were added per well, at a concentration of 5 mg MTT/ml of medium without serum. […] It was left to stir for 10-15 minutes (in the dark) and was then analyzed in the microplate spectrophotometer (PowerWave™ XS; BioTek) at a wavelength of 540 nm.
Absorbance values (OD) were obtained in triplicate for each of the treatment concentrations established. The calculated mean was expressed in reference to the control thereof (0 ng/ml), considered as the maximum survival value (100%).

[4] = system: xenotransplant of breast cancer metastasizing to the brain; experiment: Effect of taxotere on growth of intramammary xenografts; assay type: in vivo; settings: Athymic Nude-Foxn1nu mice, 15 mg/kg/day every 4 days for two weeks, vs carrier control, p=0.003
Description: A xenotransplant of breast cancer metastasizing to the brain provided by Dr. Eva Gonzalez was used to induce breast tumors in immunosuppressed Athymic Nude-Foxnlnu mice weighing 22-28 grams acquired from Charles-River Laboratories (Wilmington, Mass.) and to establish groups that are treated or not treated with taxotere following a previously established standard protocol of 15 mg/kg/day every 4 days for two weeks (Bin Gu et al., Carcinogenesis, 2004). The 2 mm^3 tumor fragment was implanted in the inguinal breast of female mice and 10 days were waited out for the graft to progress. After evaluating the volume of the tumor, treatment with taxotere was started, considering in each case a control group which was treated with the drug carrier.

**Q.** For `Nc1cccc2c1CN(C1CCC(=O)NC1=O)C2=O` (centres unmarked) [lenalidomide], which “expression of FN14 in tumor graft” value [1] is on record?
**A.** The value was “inhibition of the expression of FN14”.

**Q.** And the “difference in growth of the metastasis between control group and treated group (luciferase emission, photons per second)” value [2]?
**A.** Its value is “significant”.

**Q.** With `CC(=O)O[C@H]1C(=O)[C@@]2(C)[C@H]([C@H](OC(=O)c3ccccc3)[C@]3(O)C[C@H](OC(=O)[C@H](O)[C@@H](NC(=O)c4ccccc4)c4ccccc4)C(C)=C1C3(C)C)[C@]1(OC(C)=O)CO[C@@H]1C[C@@H]2O` [taxol, 11-methano-5H-cyclodeca[3,4]benz[1,2-b]oxete benzenepropanoic acid deriv.] as the compound, how does the “survival of cells after treatment (percentage of survival with respect to the control)” value [3] read?
**A.** The value was “lower survival”.

**Q.** What does the source list for `CC(=O)O[C@@]12CO[C@@H]1C[C@H](O)[C@@]1(C)C(=O)[C@H](O)C3=C(C)[C@@H](OC(=O)[C@H](O)[C@@H](NC(=O)OC(C)(C)C)c4ccccc4)C[C@@](O)([C@@H](OC(=O)c4ccccc4)[C@H]21)C3(C)C` [taxotere, N-debenzoyl-N-tert-butoxycarbonyl-10-deacetyl taxol]?
**A.** survival of cells after treatment (percentage of survival with respect to the control) [3]: significantly reduces the survival; tumor growth (normalized volume divided by the initial volume) [4]: tendency to grow less than that of the control
